pEC50: −log10 of the molar value.
Legend:
VCaP = assay: pAkt pathway inhibition, VCaP; assay type: cell-based; conditions: Homo sapiens, Prostate
Dog PK = assay type: in vivo; conditions: plasma
Description: The pharmacokinetics of Compound A in mouse and dogs were also examined. […] The results of Tmax (time of maximum observed concentration), Cmax (maximum concentration in plasma measured), AUC (area under the curve for plasma concentration versus time), Cl (total body clearance), and Vz (volume of distribution) were summarized in Table 4. As used herein, the mark ‘-’ represents data not relevant. AUC is shown as the unit of ng*h/mL (ng=nanograms, h=hour, mL=milliliter); ng are multiplied by h, and the value is divided by the volume in mL.

LN229 = assay: pAkt pathway inhibition, LN229; assay type: cell-based; conditions: Homo sapiens, LN-229; LN229, Glioma
PTEN null T-ALL = assay: Diseased Lck/PTEN^fl/fl mice with PTEN null T-ALL; assay type: in vivo; conditions: 30 mg/kg BID, Day 4 and 7, compared to control mice
KM-12 = assay: pAkt pathway inhibition, KM-12; assay type: cell-based; conditions: Homo sapiens, KM12; KM-12, Colon
PC3 = assay: Viability (AlamarBlue), PC3; assay type: cell-based; conditions: Homo sapiens, PC-3; PC3, Prostate
Experimental: (§1) For primary T-ALL samples, cell viability was determined using the BD Cell Viability kit (BD Biosciences) and fluorescent counting beads as previously described in Armstrong, F. et al., NOTCH is a key regulator of human T-cell acute leukemia initiating cell activity, Blood 113, 1730-1740 (2009). Cells were plated with MS5-DL1 stroma cells. After 72 hours following treatment, cells were harvested and stained with an APC-conjugated anti-human CD45 according to the manufacturer's instructions. For solid tumor cell lines, cellular viability was determined using the AlamarBlue kit (Invitrogen). About 10,000 cells in 100 μL of media containing 10% FBS were aliquoted into individual wells of a 96-well plate and treated with vehicle (DMSO) or compound in triplicate for 24 hours. Ten μL of AlamarBlue reagent was added to each well and incubated for 4 hours at 37° C. with 5% CO2. Fluorescence was measured with an excitation wavelength at 530 to 560 nm and emission wavelength at 590 nm using Spectramax M5 plate reader (Molecular Devices, Sunnyvale, Calif.).

B Cell Malignancies = assay: Cellular viability, B cell malignancies; assay type: cell-based; conditions: N = 7
Description: Cellular viability and pAkt activity were used to determine effects of Compounds A, C, and D in solid tumor, B-cell malignancies, and T-cell malignancies.

primary T-ALL tumors = assay: Viability of primary T-ALL tumors; assay type: cell-based, human; conditions: 1.0, 2.5, and 5.0 μM, 72 hours
Experimental: Cryopreserved samples from the Columbia Presbyterian Hospital, the Erasmus MC-Sophia Children's Hospital, and the University of Padua were used. All samples were collected with informed consent and supervised by the institutes' review boards and the Acute Lymphoblastic Leukemia Strategic Scientific Committee.
as §1, with “Calif.). […]” for “Calif.).”

## CC(Nc1ncnc2[nH]cnc12)c1nc2cccc(Cl)c2c(=O)n1-c1ccccc1 (stereo not drawn) [Compound A, 2-(1-(9H-purin-6-ylamino)ethyl)-5-chloro-3-phenylquinazolin-4(3H)-one]
VCaP
  EC50: 1200 nM
Dog PK; IV 1 mg/kg
  clearance: 6.08 mL/min/kg
Dog PK; IV 1 mg/kg, read-out: Vz
  Vd: 0.891 L/kg
Dog PK; PO 1 mg/kg
  AUC: 4450 ng·h/mL
  Cmax: 1040 ng/mL
  Tmax: 2.3 h
LN229
  EC50: 10 nM
PTEN null T-ALL
  luminescent signal: significantly lower
KM-12
  EC50: 897 nM
PC3
  GI50: 2400 nM
B Cell Malignancies
  pEC50: 6.38
Primary T-ALL tumors
  viability of tumor cells: reduced viability
